Source: PMC8251916 (Chemistry (Weinheim an Der Bergstrasse, Germany), 2021)

Experiments:
[1] = tested on: F21T-K+ (human telomeric G-quadruplex, mixed parallel/hybrid); assay: FRET melting assay, human telomeric G4 in potassium buffer; type: binding; conditions: 200 nM DNA, PIPER and 3 not reliable (spectral overlap)
Experimental: (§1) With the library in hand, we began our investigation into G4 stabilization by conducting a Förster resonance energy transfer (FRET) melting assay to assess DNA stabilization using the procedure outlined by De Cian et. al. ^[13] […] The sequences examined (at 200 nM) were the human telomeric G4 in potassium buffer (F21T‐K^+, mixed parallel/hybrid G4) ^[14] and sodium buffer (F21T‐Na^+, antiparallel G4), ^[15] the c‐Myc promoter G‐quadruplex (FmycT‐K^+, parallel G4), ^[16] a polymorphic G4 found in T. brucei (FEBR1T‐K^+, a mixed G4 topology), ^[6b] and a hairpin duplex DNA sequence (F10T‐K^+). Together, these sequences represent targets for therapeutic intervention to treat parasitic infections, ^[6b] or cancer. ^[1b] The topology of each sequence was confirmed independently via circular dichroism (CD, Figure S1). […]
(§2) FRET melting assays were performed to assess ligand affinity for duplex and G-quadruplex
(§3) DNA. Briefly, oligonucleotides of interest were obtained labelled at the 5’ and 3’ ends with FAM (a fluorescence donor) and TAMRA (a fluorescence quencher), respectively. In the folded state, proximity of the donor and quencher result in no observed fluorescence from FAM, since energy is transferred non-radiatively to TAMRA by FRET. As the temperature is raised and the secondary structure denatures, the fluorophores move further apart and the fluorescence signal increases. From the resulting curve, the characteristic melting temperature (Tmax, also referred to as Tm) is defined as the temperature which corresponds to the maxima of the first derivative of the normalised fluorescence signal. The change in melting temperature (ΔTm) induced by the presence of a small molecule ligand provides an indication of the ligand’s ability to stabilise the DNA structure. FRET experiments were performed according to the […]
(§4) procedure reported by De Cian and co-workers[S3] on a Stratagene MX3005P. The method consisted of holding at 25 °C for 5 min, before heating at 1 °C/min to 96 °C in 1 °C increments, […]

[2] = tested on: F21T-Na+ (human telomeric G-quadruplex, antiparallel); assay: FRET melting assay, human telomeric G4 in sodium buffer; type: binding; conditions: 200 nM DNA, PIPER and 3 not reliable (spectral overlap)
Experimental: as §1, §2, §3, §4

[3] = tested on: telo22-Na+ (antiparallel basket human telomeric G4); assay: UV-Vis titration, telo22-Na+; type: binding
Experimental: To obtain quantitative information on the binding of NDI 1 and PDI 3 to the previously assessed G4 and duplex DNA structures, ultraviolet‐visible absorbance spectroscopy (UV‐Vis) titrations were conducted (Figure 3 and S10). In all cases the ligand concentration was kept constant at 10 μM, whilst oligonucleotide was titrated in up to a final concentration of 30 μM. The observed binding isotherms were fitted to an independent/equivalent sites binding model, and binding constants (K a) were determined. […]
telo22-Na+ (antiparallel basket […]
telo23 and telo22 were selected as models for the human telomeric G-quadruplex under K+ and Na+ conditions, respectively, as they have been the subject of detailed structural studies,[S8,S9] […]
used. telo23 forms primarily a (3+1) hybrid structure under K+ conditions,[S8] whilst telo22 forms a single antiparallel fold.[S9]
The oligonucleotides were at a concentration of 5 µM and the buffers used were either potassium phosphate (100 mM, pH 7.4) for telo23-K+, EBR1-K+ and ds26-K+ or sodium phosphate (100 mM, pH 7.4) for telo22-Na+. […]
UV-Visible Absorbance Spectroscopy
Absorbance spectra were recorded on a Cary 60 UV-Visible (UV-Vis) spectrophotometer using a room-light immune fibre optic probe with 10 mm path length. […]
were corrected for background and buffer absorbance. […]

L. major = assay: Leishmaniacidal activity, MTT assay; type: cell-based; conditions: Leishmania major; 72 h incubation, MTT absorbance; read-out: absolute EC50 L. major
Experimental: Doxorubicin, suramin and miltefosine were used as control compounds.[ ^6b , ^9 ] After incubation with varied concentrations of the compounds for 72 h, cell viability was measured using either an alamarBlue™ assay (for MRC5, HeLa and T. brucei) or MTT assay (for L. major). Absolute EC50 values and selectivity indexes were then calculated from dose‐response curves (Table 2 and S14).
Invitrogen). L. major promastigotes (MHOM/IL/80/Friedlin) were cultured at 28 °C, 5 % CO2 in modified RPMI-1640 medium (Thermo Fisher Scientific, Waltham, MA, USA) with 10% hiFBS. Parasites were split every other day and maintained in their experimental growth phase (below 2 million parasites per mL). […]
The results are expressed as the concentration of compound that reduces cell growth by 50 % versus untreated control cells (EC50) using GraphPad Prism 7 (GraphPad Software) to fit the data to a sigmoidal curve. Data are presented as the average of three independent measurements all conducted in triplicate conditions. […]
The leishmaniacidal activity of the compounds on promastigotes L. major (MHOM/IL/80/Friedlin) was carried out as previously described.[S14] Briefly, 4 × 10^6 / mL promastigotes were incubated for 72 h at 28 °C in 96-well plates (50 µL/well) in the presence of increasing concentration of compounds. Cell proliferation was determined using an MTT-based assay (Sigma-Aldrich). Thus, after the 72 h incubation, 10 µL of MTT (5 mg/ml) were added to each well and parasites were reincubated for 4 hrs at 28 °C. Then, 50 µL of 20 % SDS were added to each well. The plate was then incubated at 37°C for 4-16 hrs and analysed using an Infinite F200 plate reader (TECAN Austria, GmbH). The absorbance was measured […]
at a wavelength of 540 nm and the EC50 was calculated as described above. Data are presented as the average of three independent measurements, all conducted in triplicate conditions. […]

[4] = tested on: telo23-K+ (DNA, G4) TAGGGTTAGGGTTAGGGTTAGGG; assay: UV-Vis titration; conditions: independent/equivalent sites, 10 µM ligand, DNA up to 30 µM, apparent
[5] = tested on: telo22-Na+ (DNA, G4) AGGGTTAGGGTTAGGGTTAGGG; assay: UV-Vis titration; conditions: independent/equivalent sites, 10 µM ligand, DNA up to 30 µM, apparent
[6] = tested on: ds26-K+ (DNA, duplex) CAATCGGATCGAATTCGATCCGATTG; assay: UV-Vis titration; conditions: independent/equivalent sites, 10 µM ligand, DNA up to 30 µM, apparent
[7] = 5 μM ligand, 10 mM KCl, 90 mM LiCl, 10 mM Li cacodylate
[8] = 5 μM ligand, 100 mM NaCl, 10 mM Li cacodylate

Compound	ΔTm F21T-K+ ([1]; 1 µM ligand)	ΔTm F21T-K+ [1, 7]	ΔTm F21T-K+ ([1]; 10 µM ligand)	ΔTm F21T-Na+ ([2]; 1 µM ligand)	ΔTm F21T-Na+ [2, 8]	ΔTm F21T-Na+ ([2]; 10 µM ligand)	Ka, telo22-Na+ [3]	EC50 (L. major)	Ka [4]	Ka [5]	Ka [6]
CN1CCN(CCCN2C(=O)c3ccc4c5ccc6c7c(ccc(c8ccc(c3c48)C2=O)c75)C(=O)N(CCCN2CCN(C)CC2)C6=O)CC1 [Compound 3]	10 ± 1 °C	34±1 °C	33 ± 1 °C	18 ± 2 °C	35±4 °C	> 40 °C	8×10^5	> 100 µM	2×10^6	8×10^5	5×10^4
CN1CCN(CCCN2C(=O)c3ccc(Oc4ccc(C(C)(C)c5ccc(Oc6ccc7c(c6)C(=O)N(CCCN6CCN(C)CC6)C7=O)cc5)cc4)cc3C2=O)CC1 [Compound 9]	–	−1±1 °C	8 ± 3 °C	–	−4±1 °C	6 ± 4 °C	–	> 100 µM	–	–	–
CN1CCN(CCCN2C(=O)c3ccc4c5c(ccc(c35)C2=O)C(=O)N(CCCN2CCN(C)CC2)C4=O)CC1 [Compound 1]	–	–	–	–	–	–	6×10^4	0.47 ± 0.07 µM	6×10^6	6×10^4	1×10^6
CN1CCN(CCCNC(=O)c2ccc(Oc3ccc(C(C)(C)c4ccc(Oc5ccc(C(=O)NCCCN6CCN(C)CC6)c(C(=O)NCCCN6CCN(C)CC6)c5)cc4)cc3)cc2C(=O)NCCCN2CCN(C)CC2)CC1 [Compound 11]	-2 ± 1 °C	7±2 °C	9 ± 1 °C	-4 ± 1 °C	1±1 °C	9 ± 2 °C	–	18 ± 1 µM	–	–	–
